The record followed here is the RepoRT retention time repository (doi:10.1016/j.jhazmat.2019.121712).

The nature of the series: Thermo Scientific Acclaim RSLC 120 C18, 100 × 2.1 mm, 2.2 µm, 30 °C; A: 90% water + 10% methanol + 0.01% formic acid + 5 mM ammonium formate; B: methanol + 0.01% formic acid + 5 mM ammonium formate; gradient (min/%B) 0.1/1 3/39 14/99.9 16/99.9. Conditions: stereoisomer not certain.
With `CCOC(=O)NCCOc1ccc(Oc2ccccc2)cc1`, the LC retention time was determined as 10.6 min. In the case of `COC(=O)Nc1nc2ccc(C(=O)c3ccccc3)cc2[nH]1`, the LC retention time was determined as 8.25 min.

On to `CCC(=O)c1ccc2c(c1)N(CCCN(C)C)c1ccccc1S2`, for which the LC retention time was found to be 8.49 min.

For the compound `CCNC(=O)C(C)OC(=O)Nc1ccccc1` (configuration not stated), the LC retention time stood at 6.58 min. To `CCc1ccc(CCOc2ccc(CC3SC(=O)NC3=O)cc2)nc1` (configuration not stated) belongs 9.09 min; to `COC(=O)c1sccc1S(=O)(=O)NC(=O)Nc1nc(C)nc(OC)n1`, 6.24 min. To `CN(C)CC(c1ccc(O)cc1)C1(O)CCCCC1` (configuration not stated) belongs 4.76 min. To `CCCCCCn1c(=O)c2c(ncn2C)n(C)c1=O` belongs 9.44 min; to `CCOP(=S)(OCC)Oc1cc(C)nc(N(CC)CC)n1`, 12.3 min; to `c1ccc2n[nH]nc2c1`, 4.76 min. For the compound `CCOP(=O)(OCC)OP(=O)(OCC)OCC`, the LC retention time was 6.49 min.

Regarding `NC(=O)c1cc[n+](CC2=C(C(=O)[O-])N3C(=O)C(NC(=O)Cc4cccs4)C3SC2)cc1` (configuration not stated), the LC retention time is 4.03 min. The same measure for `Nc1ccc(S(=O)(=O)Nc2cnc3ccccc3n2)cc1`: 5.81 min; for `CC(=O)Nc1ccc(O)cc1`: 3.48 min.

Take `CCOC(=O)c1cn2nc(OP(=S)(OCC)OCC)cc2nc1C`: the LC retention time was 11.4 min. Consider `c1ccc(Nc2ccccc2)cc1`, for which the LC retention time came out at 10.1 min. On to `CCCCSP(=O)(SCCCC)SCCCC`, for which the LC retention time stood at 13.4 min. Consider `CC(C(O)c1ccccc1)N(C)C` (configuration not stated), for which the LC retention time was 3.73 min.

As for `CCCc1nn(C)c2c(=O)[nH]c(-c3cc(S(=O)(=O)N4CCN(CC)CC4)ccc3OCC)nc12`, the LC retention time was 7.84 min.

For the compound `CNC(=O)Oc1ccccc1C1OCCO1`, the LC retention time was determined as 5.16 min. The same measure for `N=C(N)N1CCc2ccccc2C1`: 4.39 min.

With `CN(C)CCC=C1c2ccccc2C(C)(C)c2ccccc21`, the LC retention time was found to be 8.79 min.

As to `N=C(N)c1ccccc1`, the LC retention time amounted to 2.63 min. To `Cc1cc(C)c(C2=C(OC(=O)CC(C)(C)C)C3(CCCC3)OC2=O)c(C)c1` belongs 12.8 min; to `CCOP(=S)(OCC)OP(=S)(OCC)OCC`, 10.8 min; to `COCc1cnc(C2=NC(C)(C(C)C)C(=O)N2)c(C(=O)O)c1` (configuration not stated), 4.63 min. Take `CCNc1nc(NC(C)CC)nc(OC)n1` (configuration not stated): the LC retention time was 8.79 min.

Consider `CNCCOC(c1ccccc1)c1ccccc1C` (configuration not stated), for which the LC retention time is 7.54 min.

Regarding `CNC(=O)Oc1cc(C)cc(C)c1`, the LC retention time was 7.78 min. The same measure for `CCCC(C)(COC(N)=O)COC(N)=O`: 5.94 min; for `CCC1(C2OC(C3OC(O)(CO)C(C)CC3C)CC2C)CCC(C2(C)CCC3(CC(O)C(C)C(C(C)C(OC)C(C)C(=O)O)O3)O2)O1` (configuration not stated): 13.8 min; for `Cc1cc(C)nc(Nc2ccccc2)n1`: 9.44 min. For `CCOC(=O)CCN(Cc1ccccc1)SN(C)C(=O)ON=C(C)SC`, the LC retention time stood at 10.8 min. The same measure for `CC(Cc1ccc(C(C)C(=O)O)cc1)C(=O)O` (configuration not stated): 6.99 min; for `COC1C=COC2(C)Oc3c(C)c(O)c4c(O)c(c5c(nc6cc(C)ccn65)c4c3C2=O)NC(=O)C(C)=CC=CC(C)C(O)C(C)C(O)C(C)C(OC(C)=O)C1C` (configuration not stated): 10.1 min. The same measure for `Cc1nccn1CC1CCc2c(c3ccccc3n2C)C1=O` (configuration not stated): 4.98 min; for `Cc1cccc(CC(C)N)c1` (configuration not stated): 5.17 min. The same measure for `Cc1ccccc1C(OCCN(C)C)c1ccccc1` (configuration not stated): 7.44 min; for `Cc1nnc(NS(=O)(=O)c2ccc(N)cc2)s1`: 4.21 min.

Take `CN(C)CCOC(=O)C(c1ccccc1)C1(O)CCCC1` (configuration not stated): the LC retention time was 6.16 min.

For `CCN(C)C(=O)Oc1cccc(C(C)N(C)C)c1` (configuration not stated), the LC retention time amounted to 4.74 min. With `CC(C)Nc1nc(N)[nH]c(=O)n1`, the LC retention time turned out to be 3.16 min. In the case of `CSc1nc2ccccc2s1`, the LC retention time is 9.79 min. For the compound `CCC(Cc1ccc2c(c1)OCO2)NC` (configuration not stated), the LC retention time worked out at 4.66 min. `CCCCC1=NC2(CCCC2)C(=O)N1Cc1ccc(-c2ccccc2-c2nn[nH]n2)cc1`: the LC retention time was found to be 9.44 min.

In the case of `Cc1ccccc1-n1c(C)nc2ccccc2c1=O`, the LC retention time came out at 7.83 min. As for `CC=C1CC(C)C(C)(O)C(=O)OCC2=CCN3CCC(OC1=O)C23` (configuration not stated), the LC retention time came to 4.62 min. To `O=C(c1cccc2ccccc12)c1cn(CCCCO)c2ccccc12` belongs 9.56 min. The same measure for `CCOC(=O)NC(=S)Nc1ccccc1NC(=S)NC(=O)OCC`: 8.61 min; for `CCCCCn1cc(C(=O)c2ccc(CC)c3ccccc23)c2ccccc21`: 13.2 min. For `Cc1cccc(C)c1OCC(=O)NC(Cc1ccccc1)C(O)CC(Cc1ccccc1)NC(=O)C(C(C)C)N1CCCNC1=O` (configuration not stated), the LC retention time worked out at 11.8 min. As for `Nc1ccc(S(N)(=O)=O)cc1`, the LC retention time came to 2.23 min. In the case of `C=C1CC(=CC)C(=O)OC2CCN3CC=C(COC(=O)C1(C)O)C23` (configuration not stated), the LC retention time worked out at 4.17 min.

With `CCCc1nn(C)c2c(=O)[nH]c(-c3cc(S(=O)(=O)N4CCCCC4)ccc3OCC)nc12`, the LC retention time amounted to 10.9 min.

Turning to `CCOP(=S)(OCC)Oc1cnccn1`, the LC retention time stood at 8.35 min. As for `COC1CC(OC2C(C)OC(OC3C(C)=CCC4CC(CC5(C=CC(C)C(C(C)C)O5)O4)OC(=O)C4C=C(C)C(O)C5OCC(=CC=CC3C)C45O)CC2OC)OC(C)C1O` (configuration not stated), the LC retention time was found to be 13.4 min.

As for `CN(C)C(=O)Nc1ccccc1`, the LC retention time was 5.12 min.

Turning to `COC12CCC3(CC1C(C)(O)C(C)(C)C)C1Cc4ccc(O)c5c4C3(CCN1CC1CC1)C2O5` (configuration not stated), the LC retention time was found to be 7.96 min. To `CC12Cc3cn[nH]c3CC1CCC1C2CCC2(C)C1CCC2(C)O` (configuration not stated) belongs 11.3 min; to `Oc1ccc2ccccc2c1N=Nc1ccccc1`, 13.6 min.

As to `CCOP(=S)(OCC)SCSC(C)(C)C`, the LC retention time came out at 12.2 min.

As to `Cc1ncc([N+](=O)[O-])n1CCCO`, the LC retention time turned out to be 4.21 min. Take `CCOC(=O)C1=NOC(c2ccccc2)(c2ccccc2)C1`: the LC retention time was found to be 10.7 min.

For `COc1cc(NS(=O)(=O)c2ccc(N)cc2)nc(OC)n1`, the LC retention time was found to be 5.6 min.

`CC12CCC3C(CCC4=CC(=O)CCC43C)C1CCC2=O` (configuration not stated): the LC retention time was found to be 9.36 min. Regarding `CC(C)(C)C(NC(=O)c1nn(CC2CCCCC2)c2ccccc12)C(N)=O` (configuration not stated), the LC retention time came to 11.7 min. As for `CCCCCn1cc(C(=O)c2cccc3ccccc23)c2c(O)cccc21`, the LC retention time was determined as 12.5 min.

Turning to `C=CCN1CCC23c4c5ccc(O)c4OC2C(O)C=CC3C1C5` (configuration not stated), the LC retention time was determined as 3.39 min. Consider `NCCCCC(NC(CCc1ccccc1)C(=O)O)C(=O)N1CCCC1C(=O)O` (configuration not stated), for which the LC retention time is 3.98 min. Regarding `CNC(=O)Oc1cc(C)c(S(C)=O)c(C)c1` (configuration not stated), the LC retention time came to 4.86 min. The same measure for `CC(CN1CCN(CCOCCO)CC1)CN1c2ccccc2Sc2ccccc21` (configuration not stated): 9.08 min; for `O=S(=O)(O)NC1CCCCC1`: 6.99 min. Regarding `CCOP(=S)(OCC)Oc1cc(C)nc(C(C)C)n1`, the LC retention time amounted to 11 min. To `CP(=O)(O)CCC(N)C(=O)O` (configuration not stated) belongs 1.44 min. The same measure for `O=C(OC1CC2CCC(C1)[N+]21CCCC1)C(O)(c1ccccc1)c1ccccc1` (configuration not stated): 5.72 min; for `CC(Cc1ccc(O)cc1)NCC(O)c1cc(O)cc(O)c1` (configuration not stated): 3.61 min; for `CC(C)C1CCC(C(=O)NC(Cc2ccccc2)C(=O)O)CC1` (configuration not stated): 10.4 min. Regarding `CCOP(=S)(OCC)Oc1ccc(S(C)=O)cc1` (configuration not stated), the LC retention time was 8.27 min. To `CC1CCC2(OC1)OC1CC3C4CC=C5CC(O)CCC5(C)C4CCC3(C)C1C2C` (configuration not stated) belongs 15.1 min.

For `CCCCCC(C)N` (configuration not stated), the LC retention time is 5.01 min. The same measure for `CCn1cc(C(=O)O)c(=O)c2cc3c(cc21)OCO3`: 6.03 min. The same measure for `CC(=O)NCCCS(=O)(=O)O`: 1.4 min. With `CNC(=O)ON=C(SC)C(=O)N(C)C`, the LC retention time stood at 3.77 min. `CCSC(=O)N(CC)C1CCCCC1`: the LC retention time came to 11.7 min. The same measure for `CCCCNC(=O)n1c(NC(=O)OC)nc2ccccc21`: 5.46 min. The same measure for `CCN(CC)C(=O)Nc1ccc(OCC(O)CNC(C)(C)C)c(C(C)=O)c1` (configuration not stated): 5.24 min; for `O=C1C(CCS(=O)c2ccccc2)C(=O)N(c2ccccc2)N1c1ccccc1` (configuration not stated): 7.94 min. In the case of `CCOC(=O)CCN(SN(C)C(=O)Oc1cccc2c1OC(C)(C)C2)C(C)C`, the LC retention time was 11.9 min. The same measure for `CCOP(=S)(NC(C)CC)Oc1cc(C)ccc1[N+](=O)[O-]` (configuration not stated): 11.2 min; for `CCC(C)C1OC2(C=CC1C)CC1CC(CC=C(C)C(OC3CC(OC)C(OC4CC(OC)C(NC)C(C)O4)C(C)O3)C(C)C=CC=C3COC4C(O)C(C)=CC(C(=O)O1)C34O)O2` (configuration not stated): 12.4 min. As for `CC(C)(C)N1CCC(c2ccccc2)(c2ccccc2)CC1`, the LC retention time is 6.72 min.

Consider `Cc1ccc(NS(=O)(=O)N(C)C)cc1`, for which the LC retention time was found to be 7.25 min. The same measure for `CSc1nc(NC(C)C)nc(NC(C)C)n1`: 10.1 min; for `CCCCC(CC)CN1C(=O)C2C3C=CC(C3)C2C1=O` (configuration not stated): 11.6 min; for `CCCc1nn(C)c2c(=O)[nH]c(-c3cc(C(=O)CN4CCN(CC=Cc5ccccc5)CC4)ccc3OCC)nc12`: 9.28 min.

With `COc1ccc(OC)c(CCN)c1`, the LC retention time stood at 4.43 min. In the case of `CCS(=O)Cc1ccccc1OC(=O)NC` (configuration not stated), the LC retention time worked out at 4.7 min.
